Assay results from ChEMBL document CHEMBL3046261, “Efficient entry to diversely functionalized spirooxindoles from isatin and their biological activity” (Med Chem Res, 2013).
Converted amounts (≈) assume the structure as drawn.

Assay: Cytotoxicity against Homo sapiens (human) U87 cells by MTT assay
Format: functional, cell-based, U-87MG ATCC
Settings: U-87 MG

Row | Compound | IC50 [µg/mL]
1 | O=C1C(=O)N(CCCBr)c2ccccc21 | 2.5 (≈ 9.32 µM)
2 | O=C1C(=O)N(CCCCBr)c2ccccc21 | 19 (≈ 67.3 µM)
3 | O=C1C(=O)N(CCCCCCBr)c2ccccc21 | 19 (≈ 61.3 µM)
4 | Cc1nn(-c2ccccc2)c2c1C1(C(=O)Nc3ccccc31)C(C#N)=C(N)O2 (configuration not stated) | 156 (≈ 422 µM)
5 | O=C1C(=O)N(CCBr)c2ccccc21 | 4.9 (≈ 19.3 µM)
6 | Cc1nn(-c2ccccc2)c2c1C1(C(=O)Nc3ccc(Br)cc31)C(C#N)=C(N)O2 (configuration not stated) | 156 (≈ 348 µM)
7 | Cc1nn(-c2ccccc2)c2c1C1(C(=O)N(CCBr)c3ccccc31)C(C#N)=C(N)O2 (configuration not stated) | 78 (≈ 164 µM)
8 | Cc1nn(-c2ccccc2)c2c1C1(C(=O)N(CCCBr)c3ccccc31)C(C#N)=C(N)O2 (configuration not stated) | 78 (≈ 159 µM)
9 | Cc1nn(-c2ccccc2)c2c1C1(C(=O)N(CCCCBr)c3ccccc31)C(C#N)=C(N)O2 (configuration not stated) | 39 (≈ 77.3 µM)
10 | Cc1nn(-c2ccccc2)c2c1C1(C(=O)N(CCCCCCBr)c3ccccc31)C(C#N)=C(N)O2 (configuration not stated) | 78 (≈ 146 µM)
11 | Cc1nn(-c2ccccc2)c2c1C1(C(=O)N(CCCCCCCCCCBr)c3ccccc31)C(C#N)=C(N)O2 (configuration not stated) | 19 (≈ 32.3 µM)
12 | O=C1C(=O)N(CCCCCCCCCCBr)c2ccccc21 | 19 (≈ 51.9 µM)
13 | N#CC1=C(N)Oc2[nH]c(=S)[nH]c(=O)c2C12C(=O)Nc1ccc(Br)cc12 (configuration not stated) | 156 (≈ 373 µM)
14 | N#CC1=C(N)Oc2[nH]c(=S)[nH]c(=O)c2C12C(=O)N(CCBr)c1ccccc12 (configuration not stated) | 78 (≈ 175 µM)
15 | N#CC1=C(N)Oc2[nH]c(=O)[nH]c(=S)c2C12C(=O)N(CCCBr)c1ccccc12 (configuration not stated) | 624 (≈ 1360 µM)
16 | N#CC1=C(N)Oc2[nH]c(=S)[nH]c(=O)c2C12C(=O)N(CCCCBr)c1ccccc12 (configuration not stated) | 78 (≈ 164 µM)
17 | N#CC1=C(N)Oc2[nH]c(=S)[nH]c(=O)c2C12C(=O)N(CCCCCCBr)c1ccccc12 (configuration not stated) | 78 (≈ 155 µM)
18 | N#CC1=C(N)Oc2[nH]c(=O)[nH]c(=S)c2C12C(=O)N(CCCCCCCCCCBr)c1ccccc12 (configuration not stated) | 39 (≈ 69.8 µM)
19 | N#CC1=C(N)Oc2c(c(=O)oc3ccccc23)C12C(=O)Nc1ccccc12 (configuration not stated) | 78 (≈ 218 µM)
20 | N#CC1=C(N)Oc2c(c(=O)oc3ccccc23)C12C(=O)Nc1ccc(Br)cc12 (configuration not stated) | 78 (≈ 179 µM)
21 | N#CC1=C(N)Oc2c(c(=O)oc3ccccc23)C12C(=O)N(CCBr)c1ccccc12 (configuration not stated) | 78 (≈ 168 µM)

Row | Compound | IC50 [µg/mL]
22 | N#CC1=C(N)Oc2c(c(=O)oc3ccccc23)C12C(=O)N(CCCBr)c1ccccc12 (configuration not stated) | 156 (≈ 326 µM)
23 | N#CC1=C(N)Oc2c(c(=O)oc3ccccc23)C12C(=O)N(CCCCBr)c1ccccc12 (configuration not stated) | 78 (≈ 158 µM)
24 | N#CC1=C(N)Oc2c(c(=O)oc3ccccc23)C12C(=O)N(CCCCCCBr)c1ccccc12 (configuration not stated) | 156 (≈ 300 µM)
25 | N#CC1=C(N)Oc2c(c(=O)oc3ccccc23)C12C(=O)N(CCCCCCCCCCBr)c1ccccc12 (configuration not stated) | 39 (≈ 67.7 µM)
26 | CC1(C)CC(=O)C2=C(C1)OC(N)=C(C#N)C21C(=O)N(CCCCCCCCCCBr)c2ccccc21 (configuration not stated) | 2.5 (≈ 4.51 µM)
27 | N#CC1=C(N)OC2=C(C(=O)CCC2)C12C(=O)Nc1ccccc12 (configuration not stated) | 156 (≈ 508 µM)
28 | N#CC1=C(N)OC2=C(C(=O)CCC2)C12C(=O)Nc1ccc(Br)cc12 (configuration not stated) | 312 (≈ 808 µM)
29 | N#CC1=C(N)OC2=C(C(=O)CCC2)C12C(=O)N(CCBr)c1ccccc12 (configuration not stated) | 78 (≈ 188 µM)
30 | N#CC1=C(N)OC2=C(C(=O)CCC2)C12C(=O)N(CCCBr)c1ccccc12 (configuration not stated) | 624 (≈ 1460 µM)
31 | N#CC1=C(N)Oc2[nH]c(=O)[nH]c(=O)c2C12C(=O)Nc1ccccc12 (configuration not stated) | 312 (≈ 965 µM)
32 | N#CC1=C(N)Oc2[nH]c(=O)[nH]c(=O)c2C12C(=O)Nc1ccc(Br)cc12 (configuration not stated) | 78 (≈ 194 µM)
33 | N#CC1=C(N)Oc2[nH]c(=O)[nH]c(=O)c2C12C(=O)N(CCBr)c1ccccc12 (configuration not stated) | 78 (≈ 181 µM)
34 | N#CC1=C(N)Oc2[nH]c(=O)[nH]c(=O)c2C12C(=O)N(CCCBr)c1ccccc12 (configuration not stated) | 312 (≈ 702 µM)
35 | N#CC1=C(N)Oc2[nH]c(=O)[nH]c(=O)c2C12C(=O)N(CCCCBr)c1ccccc12 (configuration not stated) | 312 (≈ 681 µM)
36 | N#CC1=C(N)Oc2[nH]c(=O)[nH]c(=O)c2C12C(=O)N(CCCCCCBr)c1ccccc12 (configuration not stated) | 78 (≈ 160 µM)
37 | N#CC1=C(N)Oc2[nH]c(=O)[nH]c(=O)c2C12C(=O)N(CCCCCCCCCCBr)c1ccccc12 (configuration not stated) | 39 (≈ 71.9 µM)
38 | CC1(C)CC(=O)C2=C(C1)OC(N)=C(C#N)C21C(=O)N(CCBr)c2ccccc21 (configuration not stated) | 78 (≈ 176 µM)
39 | CC1(C)CC(=O)C2=C(C1)OC(N)=C(C#N)C21C(=O)N(CCCBr)c2ccccc21 (configuration not stated) | 312 (≈ 684 µM)
40 | CC1(C)CC(=O)C2=C(C1)OC(N)=C(C#N)C21C(=O)N(CCCCBr)c2ccccc21 (configuration not stated) | 156 (≈ 332 µM)
41 | CC1(C)CC(=O)C2=C(C1)OC(N)=C(C#N)C21C(=O)N(CCCCCCBr)c2ccccc21 (configuration not stated) | 78 (≈ 156 µM)
42 | O=NN(CCCl)C(=O)NCCCl [CARMUSTINE] | 3.9 (≈ 18.2 µM)
